Reference: patent publication US11591323B2, “Muscarinic agonists as non-steroidal and non-opioid analgesics and methods of use thereof” (Barry University, priority 2019, dated 2023)
Entries after “also recorded” stand apart in the source; their conditions may differ.

Experiments:
Format in all cases: cell-based
[1] = molecular target: M3 muscarinic receptor (Homo sapiens, UniProt P20309); assay: inhibition of forskolin-stimulated cAMP, M3 CHO cells (M3Gi); set-up: host or cells: CHO cells, stably transfected; settings: for Emax: CHO; for Emax / EC50 / τ / RAi / Kd: M3Gi (↓cAMP); for Emax / EC50 / τ / Kd: Table 8; for effect on forskolin-stimulated production of cAMP: M3, non-preferential response, in words; for RAi: Table 8, relative to carbachol; for Kd: read-out: pKA (converted)
Protocol: (§1) Since activation of phospholipase C (PLC) via M2 and M4 receptors is weak, cells were transferred with G15 G-protein to facilitate coupling.
(§2) To determine level of cAMP, cells in suspension were pre-incubated for 1 h with 0.4 μM [^3H]adenine, washed, and incubated for 10 min in the presence of isobutylmethylxanthine and 10 μM forskolin. […] Incubation was ended by addition of 0.2 ml of 2.5 M HCl to the samples. Samples were applied to alumina columns (1.5 g of alumina per column), washed with 2 ml ammonium acetate (pH=7.0) and eluted from columns with 4 ml ammonium acetate and measured by liquid scintillation spectrometry. […] The incubation was stopped by addition of 0.5 ml of chloroform methanol HCl mixture (2:1:0.1). After separation of water and organic phases, 0.6 ml of water phase was applied to Dowex columns (1.5 g of Dowex per column), washed by 20 ml of 60 mM ammonium formate/5 mM sodium borate buffer and eluted from columns with 4 ml of 1M ammonium formate/0.1 formic acid buffer and measured by liquid scintillation spectrometry.
(§3) Measurements of the production of cAMP and inositol phosphates: Levels of second messengers cAMP and inositol phosphates were determined in radiochemical chromatography assays as described previously. To determine level of cAMP, cells in suspension were pre-incubated for 1 h with 0.4 μM [^3H]adenine, washed, and incubated for 10 min in the presence of isobutylmethylxanthine and 10 μM forskolin. […] Incubation was ended by addition of 0.2 ml of 2.5 M HCl to the samples. Samples were applied to alumina columns (1.5 g of alumina per column), washed with 2 ml ammonium acetate (pH=7.0) and eluted from columns with 4 ml ammonium acetate and measured by liquid scintillation spectrometry. […] For this purpose, new CHO cell lines stably expressing promiscuous G15 G-protein and M2 or M4 receptor were generated by transfection with pCMV/hygro vector and hygromycin selection. To determine the rate of formation of inositol phosphates IPX, suspended cells were pre-incubated with 0.1 μM [^3H]myo-inositol for 60 min, washed, and incubated with 10 mM LiCl for 15 min. […] The incubation was stopped by addition of 0.5 ml of chloroform methanol HCl mixture (2:1:0.1). After separation of water and organic phases, 0.6 ml of water phase was applied to Dowex columns (1.5 g of Dowex per column), washed by 20 ml of 60 mM ammonium formate/5 mM sodium borate buffer and eluted from columns with 4 ml of 1M ammonium formate/0.1 formic acid buffer and measured by liquid scintillation spectrometry.
(§4) For bi-phasic response, curves were inhibitory and stimulatory phase were fitted separately. Operational Model of Functional Agonism
(§5) [formula] where y is functional response at concentration of tested compound x, EMAX is maximal response of the system, KA is equilibrium dissociation constant and nH is slope factor. Eq. 5 was fitted to data from functional experiments. Eq. 5 was fitted to data by the two-step procedure described earlier. […] In the second step, Eq. 5 with EMAX fixed to the value determined in the first step was fitted to individual experimental data sets. Relative Intrinsic Activity
(§6) Muscarinic receptors are also able to stimulate non-preferential signalling pathways.

[2] = molecular target: T1, M5 muscarinic receptor (Homo sapiens, UniProt P08912); assay: stimulation of cAMP, M5 CHO cells (M5Gs); set-up: host or cells: CHO cells, stably transfected; settings: for RAi / E′MAX / τ / Δlog(τ/KA): M5Gs (↑cAMP); for RAi: Table 8, relative to carbachol; for E′MAX / τ: Table 8; for Δlog(τ/KA): Table 8, to carbachol
T1 sequence (P08912 1-532): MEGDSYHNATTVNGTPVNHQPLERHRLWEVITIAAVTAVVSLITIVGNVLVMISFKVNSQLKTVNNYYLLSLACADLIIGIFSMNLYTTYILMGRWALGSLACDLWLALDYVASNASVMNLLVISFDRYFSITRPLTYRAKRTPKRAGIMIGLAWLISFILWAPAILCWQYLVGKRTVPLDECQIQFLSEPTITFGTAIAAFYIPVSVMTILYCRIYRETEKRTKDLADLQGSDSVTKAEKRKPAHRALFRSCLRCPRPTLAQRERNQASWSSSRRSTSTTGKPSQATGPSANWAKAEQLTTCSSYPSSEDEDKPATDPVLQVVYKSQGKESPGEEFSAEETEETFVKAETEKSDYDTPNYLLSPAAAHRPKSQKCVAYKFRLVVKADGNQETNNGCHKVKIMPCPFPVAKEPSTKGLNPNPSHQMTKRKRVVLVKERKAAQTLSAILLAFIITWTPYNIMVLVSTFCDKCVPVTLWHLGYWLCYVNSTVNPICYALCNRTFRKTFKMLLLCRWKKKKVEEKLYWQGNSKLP
Protocol: as §2, §3, §4, §5, §6

[3] = molecular target: T2, M2 muscarinic receptor (Homo sapiens, UniProt P08172); assay: accumulation of IPX, M2 CHO cells with promiscuous G15 G-protein (M2Gq+G15); set-up: expressed in transfected cells; host or cells: CHO cells, pCMV/hygro vector, hygromycin selection; settings: for RAi / E′MAX / τ / Δlog(τ/KA): M2Gq ± G15 (↑IPX); for RAi: Table 8, relative to carbachol; for accumulation of IPX: M2 co-transfected with G15, in words; for E′MAX / τ: Table 8; for Δlog(τ/KA): Table 8, to carbachol
T2 sequence (P08172 1-466): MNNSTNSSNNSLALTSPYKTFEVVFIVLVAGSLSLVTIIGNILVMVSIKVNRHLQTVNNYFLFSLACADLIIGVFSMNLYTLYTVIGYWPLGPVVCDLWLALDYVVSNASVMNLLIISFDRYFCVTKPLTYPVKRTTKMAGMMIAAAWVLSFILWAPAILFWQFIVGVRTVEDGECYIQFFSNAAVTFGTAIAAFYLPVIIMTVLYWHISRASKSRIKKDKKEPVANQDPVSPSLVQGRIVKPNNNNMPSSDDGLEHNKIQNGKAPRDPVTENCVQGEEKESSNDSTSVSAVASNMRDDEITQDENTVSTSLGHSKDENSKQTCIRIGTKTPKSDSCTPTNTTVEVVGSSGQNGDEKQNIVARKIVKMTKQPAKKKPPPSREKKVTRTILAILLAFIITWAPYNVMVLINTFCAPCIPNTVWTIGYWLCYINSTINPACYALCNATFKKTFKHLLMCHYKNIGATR
Protocol: as §1, §2, §3, §4, §5, §6

Sequence of M3 muscarinic receptor (P20309 whole entry): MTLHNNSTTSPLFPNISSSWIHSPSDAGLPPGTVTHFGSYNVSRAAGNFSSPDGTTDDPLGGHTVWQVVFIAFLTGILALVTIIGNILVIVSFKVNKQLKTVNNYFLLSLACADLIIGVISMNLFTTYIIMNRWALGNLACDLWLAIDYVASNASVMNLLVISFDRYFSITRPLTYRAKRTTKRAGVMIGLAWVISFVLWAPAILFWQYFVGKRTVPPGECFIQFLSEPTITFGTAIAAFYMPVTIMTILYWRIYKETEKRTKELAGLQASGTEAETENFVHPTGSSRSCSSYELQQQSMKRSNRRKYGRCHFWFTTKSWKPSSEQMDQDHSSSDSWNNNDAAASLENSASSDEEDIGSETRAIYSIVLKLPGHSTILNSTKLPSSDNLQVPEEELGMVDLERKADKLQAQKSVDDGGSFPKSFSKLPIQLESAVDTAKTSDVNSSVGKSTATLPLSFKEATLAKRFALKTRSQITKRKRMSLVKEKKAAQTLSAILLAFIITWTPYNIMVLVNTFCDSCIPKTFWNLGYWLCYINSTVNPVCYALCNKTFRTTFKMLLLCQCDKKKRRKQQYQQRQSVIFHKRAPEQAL

## C[N+]1(Cc2cccs2)CC=CCC1.[I-] (centres unmarked) [Compound 7A, 1-methyl-1-[(thiophen-2-yl)methyl]-1,2,3,6-tetrahydropyridin-1-ium iodide]
[1]
  Emax: 16 ± 1%
  effect on forskolin-stimulated production of cAMP: inhibited cAMP production
  EC50: 8.71 µM
  τ: 0.22 ± 0.02
  RAi: +inf.
  Kd: 10 µM
[2]
  RAi: 0
[3]
  RAi: 0
  accumulation of IPX: did not stimulate IPX accumulation

## O=C1CCCN1CC#CCN1CCCC1 [oxotremorine, reference compound]
[2]
  EC50: 3.8 µM
  Kd: 3.98 µM
  E′MAX: 1.22 ± 0.03 fold increase
  τ: 0.09 ± 0.02
  RAi: 6.62 ± 0.58
  Δlog(τ/KA): −0.82 ± 0.08
[3]
  EC50: 0.0708 µM
  Kd: 0.2 µM
  E′MAX: 4.1 ± 0.3 fold over basal
  τ: 1.9 ± 0.2
  RAi: 2.41 ± 0.22
  Δlog(τ/KA): −0.38 ± 0.05

## C[N+](C)(C)CCOC(N)=O [carbachol, reference compound]
[2]; M5, micromolar concentrations, in words
  increase of cAMP level: at micromolar concentrations it stimulated cAMP production; also recorded: increased cAMP level at micromolar concentrations
[2]
  E′MAX: 1.23 ± 0.03 fold increase
  τ: 0.10 ± 0.02
  Δlog(τ/KA): 0
[3]
  E′MAX: 4.9 ± 0.3 fold over basal
  τ: 4.5 ± 0.5
  Δlog(τ/KA): 0
  accumulation of IPX: stimulated accumulation of IPX

## C1=CCN(Cc2cccs2)CC1.Cl [Compound 6A, 1-[(thiophen-2-yl)methyl]-1,2,3,6-tetrahydropyridin-1-ium chloride]
[1]
  Emax: 13 ± 1%
  effect on forskolin-stimulated production of cAMP: inhibited cAMP production
  EC50: 7.76 µM
  τ: 0.17 ± 0.02
  RAi: +inf.
  Kd: 10 µM
[2]
  RAi: 0
[3]
  RAi: 0
  accumulation of IPX: did not stimulate IPX accumulation
